This assay deals with PIK3CB;PIK3CG;PIK3CD;PIK3CA (human) (UniProt P48736). Description: Enzyme Assay.

Turning to `O=C(c1nn(-c2ccc(CN3CC(F)C3)cc2)c2c1CS(=O)(=O)c1ccccc1-2)N1CCOCC1`, the IC50 was determined as 229 nM.

`Cc1ccncc1-n1nc(C(=O)N2CCOCC2)c2c1-c1ccccc1S(=O)(=O)C2`: the half-maximal inhibitory concentration (IC50) was 4040 nM. Under `O=C(c1nn(C2CCOC2)c2c1CS(=O)(=O)c1c(F)cccc1-2)N1CCOCC1` (centres undefined) stands 353 nM; under `O=C(c1nn(-c2ccccc2)c2c1CS(=O)(=O)c1nccn1-2)N1CCOCC1`, 477 nM. Next, `C[C@@H]1CN(CCN2CCC[C@H](n3nc(C(=O)N4CCOCC4)c4c3-c3ccccc3S(=O)(=O)C4)C2)C[C@H](C)O1`: 65 nM.

Turning to `COCCNc1ccc2c(c1)-c1c(c(C(=O)N3CCOCC3)nn1-c1ccccc1)CS2(=O)=O`, the IC50 amounted to 902 nM.

With `CC(C)(C)OC(=O)N1CCCC(n2nc(C(=O)N3CCOCC3)c3c2-c2ccccc2S(=O)(=O)C3)CC1` (centres undefined), the concentration for half-maximal inhibition (IC50) is 824 nM. Under `O=C(c1nn(CCO)c2c1CS(=O)(=O)c1ccccc1-2)N1CCOCC1` stands 661 nM; under `CN(C)Cc1ccc(-n2nc(C(=O)N3CCOCC3)c3c2-c2ccccc2S(=O)(=O)C3)cc1`, 43 nM. Under `O=C(c1nn(-c2ccccc2)c2c1CS(=O)(=O)c1ccc(CN3CCOCC3)cc1-2)N1CCOCC1` stands 1620 nM; under `O=C(c1nn(-c2ccc(N3CCOCC3)cc2)c2c1CS(=O)(=O)c1ccccc1-2)N1CCOCC1`, 3940 nM; under `COC1CCN(Cc2cccc(-n3nc(C(=O)N4CCOCC4)c4c3-c3ccccc3S(=O)(=O)C4)c2)C1` (centres undefined), 350 nM.

For the compound `O=C(c1nn(C2CCN(CCN3CCOCC3)C2)c2c1CS(=O)(=O)c1ccccc1-2)N1CCOCC1` (centres undefined), the IC50 was 192 nM. Next, `O=C(c1nn(C2CCCN(CCn3cccn3)C2)c2c1CS(=O)(=O)c1c(F)cccc1-2)N1CCOCC1` (centres undefined): 80 nM; `O=C(c1nn(-c2cccc(CN3CCC(O)CC3)c2)c2c1CS(=O)(=O)c1ccccc1-2)N1CCOCC1`: 573 nM; `O=C(c1nn([C@@H]2CCN(CCN3CCC(F)CC3)C2)c2c1CS(=O)(=O)c1ccccc1-2)N1CCOCC1`: 3690 nM. Next, `O=C(c1nn([C@H]2CCCN(CCN3CCC(O)CC3)C2)c2c1CS(=O)(=O)c1ccccc1-2)N1CCOCC1`: 18 nM. Next, `O=C(c1nn(CCc2ccccn2)c2c1CS(=O)(=O)c1ccccc1-2)N1CCOCC1`: 1920 nM. Turning to `O=C(c1ccc(-n2nc(C(=O)N3CCOCC3)c3c2-c2ccccc2S(=O)(=O)C3)cc1)N1CCOCC1`, the half-maximal inhibitory concentration (IC50) was determined as 274 nM. Compound `O=C(c1nn(C2CCCN(CCN3CCCC(F)(F)C3)C2)c2c1CS(=O)(=O)c1ccccc1-2)N1CCOCC1` (centres undefined) came in with a half-maximal inhibitory concentration (IC50) of 83 nM. On to `O=C(c1nn(-c2cccc(OCCn3cccn3)c2)c2c1CS(=O)(=O)c1ccccc1-2)N1CCOCC1`, for which the IC50 worked out at 445 nM. Under `O=C(NC1CCCCC1)N1CCC(n2nc(C(=O)N3CCOCC3)c3c2-c2ccccc2S(=O)(=O)C3)C1` (centres undefined) stands 875 nM; under `O=C(c1nn(-c2ccccc2F)c2c1CS(=O)(=O)c1ccccc1-2)N1CCOCC1`, 2000 nM; under `Cn1nc(C(=O)N2CCOCC2)c2c1-c1ccccc1S(=O)(=O)C2Cc1ccccc1` (centres undefined), 5270 nM. Under `COCCCn1nc(C(=O)N2CCOCC2)c2c1-c1ccccc1S(=O)(=O)C2` stands 907 nM; under `COCCN1CCC[C@@H](n2nc(C(=O)N3CCOCC3)c3c2-c2ccccc2S(=O)(=O)C3)C1`, 3550 nM; under `O=C(c1nn(-c2ccccc2)c2c1CS(=O)(=O)c1ccc(F)cc1-2)N1CCOCC1`, 987 nM. Under `O=C(c1nn(-c2cccc(-c3ccoc3)c2)c2c1CS(=O)(=O)c1ccccc1-2)N1CCOCC1` stands 826 nM. With `Cc1ccc2c(c1)-c1c(c(C(=O)N3CCOCC3)nn1-c1ccccc1)CS2(=O)=O`, the half-maximal inhibitory concentration (IC50) worked out at 1500 nM.

Take `O=C(c1nn([C@H]2CCCN(C3CCOCC3)C2)c2c1CS(=O)(=O)c1ccccc1-2)N1CCOCC1`: the IC50 was 80 nM. Under `O=C(c1nn([C@@H]2CCCN(CCN3CCOCC3)C2)c2c1CS(=O)(=O)c1ccccc1-2)N1CCOCC1` stands 1280 nM; under `O=C(c1nn(C2CCCN(CCN3CC[C@H](F)C3)C2)c2c1CS(=O)(=O)c1ccccc1-2)N1CCOCC1` (some centres undefined), 72 nM; under `O=C(c1nn(C2CCCN(CCC3CCOCC3)C2)c2c1CS(=O)(=O)c1c(Cl)cccc1-2)N1CCOCC1` (centres undefined), 38 nM. Under `O=C(c1nn(C2CCOCC2)c2c1CS(=O)(=O)c1c(Cl)cccc1-2)N1CCOCC1` stands 673 nM; under `Cn1cc(-c2cccc(-n3nc(C(=O)N4CCOCC4)c4c3-c3ccccc3S(=O)(=O)C4)c2)cn1`, 184 nM.

Compound `CC1CCC(n2nc(C(=O)N3CCOCC3)c3c2-c2ccccc2S(=O)(=O)C3)CC1` (centres undefined) had an IC50 of 426 nM. Under `CS(=O)(=O)Nc1cccc(-n2nc(C(=O)N3CCOCC3)c3c2-c2ccccc2S(=O)(=O)C3)c1` stands 1780 nM; under `CC1COCCN1CCN1CCC[C@H](n2nc(C(=O)N3CCOCC3)c3c2-c2ccccc2S(=O)(=O)C3)C1` (some centres undefined), 101 nM.

Turning to `CN(C)Cc1cccc(-n2nc(C(=O)N3CCOCC3)c3c2-c2ccccc2S(=O)(=O)C3)c1`, the concentration for half-maximal inhibition (IC50) is 1110 nM.

`Cc1nc2ccc(-n3nc(C(=O)N4CCOCC4)c4c3-c3ccccc3S(=O)(=O)C4)cc2s1` yielded an IC50 of 662 nM. This IC50 is about 1.7-fold lower than that of the compound before. Next, `O=C(c1nn(C2CCCOC2)c2c1CS(=O)(=O)c1ccccc1-2)N1CCOCC1` (centres undefined): 326 nM; `O=C(c1nn(C2CCCN(CCCn3cccc3)C2)c2c1CS(=O)(=O)c1ccccc1-2)N1CCOCC1` (centres undefined): 90 nM; `Cn1cc(-n2nc(C(=O)N3CCOCC3)c3c2-c2ccsc2S(=O)(=O)C3)ccc1=O`: 2690 nM. Next, `COc1ccccc1-n1nc(C(=O)N2CCOCC2)c2c1-c1ccccc1S(=O)(=O)C2`: 14800 nM.

Take `CC(C)CCOC1CCN(Cc2ccc(-n3nc(C(=O)N4CCOCC4)c4c3-c3ccccc3S(=O)(=O)C4)cc2)C1` (centres undefined): the IC50 came out at 167 nM. Under `O=C(c1nn(-c2cccnc2)c2c1CS(=O)(=O)c1ccccc1-2)N1CCOCC1` stands 1130 nM. Next, `O=C(c1nn([C@@H]2CCCN(CCC3CCOCC3)C2)c2c1CS(=O)(=O)c1c(F)cccc1-2)N1CCOCC1`: 1920 nM; `O=C(c1nn([C@@H]2CCN(CCC3CCOCC3)C2)c2c1CS(=O)(=O)c1c(F)cccc1-2)N1CCOCC1`: 1690 nM; `O=C(c1nn(C2CCCCC2)c2c1CS(=O)(=O)c1sccc1-2)N1CCOCC1`: 302 nM.

`Cc1nnc(-c2cccc(-n3nc(C(=O)N4CCOCC4)c4c3-c3ccccc3S(=O)(=O)C4)c2)s1` registered an IC50 of 661 nM. Compared with the last compound, the IC50 is about 2.2-fold higher.

For the compound `O=C(c1nn(-c2ccccc2)c2c1CS(=O)(=O)c1c(F)cccc1-2)N1CCOCC1`, the IC50 stood at 424 nM.

In the case of `COCCCN1CCCC(n2nc(C(=O)N3CCOCC3)c3c2-c2ccccc2S(=O)(=O)C3)C1` (centres undefined), the half-maximal inhibitory concentration (IC50) is 140 nM. `O=C(c1nn(-c2cccc(F)c2)c2c1CS(=O)(=O)c1ccccc1-2)N1CCOCC1` showed an IC50 of 739 nM.

In the case of `COCCOCCN1CCCC(n2nc(C(=O)N3CCOCC3)c3c2-c2ccccc2S(=O)(=O)C3)C1` (centres undefined), the IC50 was determined as 635 nM.

In turn, `O=C(c1cccc(-n2nc(C(=O)N3CCOCC3)c3c2-c2ccccc2S(=O)(=O)C3)c1)N1CCCCC1` returned a 50% inhibitory concentration (IC50) of 182 nM. The compound `COCCCN1CCCC(n2nc(C(=O)N3CCOCC3)c3c2-c2ccccc2S(=O)(=O)C3)CC1` (centres undefined) registered an IC50 of 438 nM. Compared with the last compound, the IC50 is about 2.4-fold higher. Under `O=C(c1nn(-c2ccccc2)c2c1CS(=O)(=O)c1ccccc1-2)N1CCOC(CO)C1` (centres undefined) stands 6530 nM; under `O=C(c1nn([C@@H]2CCCN(CC3CCOCC3)C2)c2c1CS(=O)(=O)c1ncccc1-2)N1CCOCC1`, 830 nM. Under `O=C(c1nn(C2CCCCCC2)c2c1CS(=O)(=O)c1ccccc1-2)N1CCOCC1` stands 469 nM; under `COCCNC(=O)c1cccc(-n2nc(C(=O)N3CCOCC3)c3c2-c2ccccc2S(=O)(=O)C3)c1`, 1110 nM. Next, `COc1ccc2c(c1)S(=O)(=O)Cc1c(C(=O)N3CCOCC3)nn(-c3ccccc3)c1-2`: 349 nM; `CN(C)S(=O)(=O)c1cccc(-n2nc(C(=O)N3CCOCC3)c3c2-c2ccccc2S(=O)(=O)C3)c1`: 641 nM; `O=C(c1nn([C@@H]2CCCNC2)c2c1CS(=O)(=O)c1ccccc1-2)N1CCOCC1`: 3000 nM. Consider `O=C(c1nn(C2CCN(CCn3ccnc3)C2)c2c1CS(=O)(=O)c1ccccc1-2)N1CCOCC1` (centres undefined), for which the IC50 came to 166 nM.

Turning to `O=C(c1nn([C@H]2CCCN(C(=O)C3CCOCC3)C2)c2c1CS(=O)(=O)c1ccccc1-2)N1CCOCC1`, the 50% inhibitory concentration (IC50) is 1500 nM. Under `CC(C)c1ccc(-n2nc(C(=O)N3CCOCC3)c3c2-c2ccccc2S(=O)(=O)C3)cc1` stands 1470 nM; under `O=C(c1nn([C@H]2CCCN(CCN3CCC(F)CC3)C2)c2c1CS(=O)(=O)c1ccccc1-2)N1CCOCC1`, 25 nM. Under `COCCN(C)CCN1CCC[C@H](n2nc(C(=O)N3CCOCC3)c3c2-c2ccccc2S(=O)(=O)C3)C1` stands 45 nM.

Turning to `O=C(c1nn(CCCO)c2c1CS(=O)(=O)c1ccccc1-2)N1CCOCC1`, the 50% inhibitory concentration (IC50) was 2250 nM.

`O=C(c1nn(-c2ccc(CN3CCOCC3)cc2)c2c1CS(=O)(=O)c1cc(F)ccc1-2)N1CCOCC1` registered a half-maximal inhibitory concentration (IC50) of 202 nM. Next, `CC1CN(Cc2ccc(-n3nc(C(=O)N4CCOCC4)c4c3-c3ccccc3S(=O)(=O)C4)cc2)CC(C)O1` (centres undefined): 57 nM; `CN1c2c(C(=O)N3CCOCC3)nn(-c3ccccc3)c2-c2ccccc2S1(=O)=O`: 3460 nM. Under `O=C(c1nn(-c2ccc(CN3CCOCC3)cc2)c2c1CS(=O)(=O)c1ncccc1-2)N1CCOCC1` stands 400 nM; under `Cc1nc(-c2cccc(-n3nc(C(=O)N4CCOCC4)c4c3-c3ccccc3S(=O)(=O)C4)c2)n[nH]1`, 4860 nM. Next, `O=C(c1nn(-c2cccc(N3CCCC3)c2)c2c1CS(=O)(=O)c1ccccc1-2)N1CCOCC1`: 4950 nM. For `Cn1nc(C(=O)N2CCOCC2)c2c1-c1ccccc1S(=O)(=O)C2`, the 50% inhibitory concentration (IC50) was determined as 1750 nM.

Regarding `CN1CCN(Cc2ccc(-n3nc(C(=O)N4CCOCC4)c4c3-c3ccccc3S(=O)(=O)C4)cn2)CC1`, the IC50 worked out at 335 nM.

Regarding `O=C(c1cccc(-n2nc(C(=O)N3CCOCC3)c3c2-c2ccccc2S(=O)(=O)C3)c1)N1CCCC(O)C1` (centres undefined), the IC50 was 348 nM. Under `CC(=O)NCCN1CCC[C@H](n2nc(C(=O)N3CCOCC3)c3c2-c2ccccc2S(=O)(=O)C3)C1` stands 105 nM.

Source of the values: the Kinase Knowledgebase extract (Sharma et al. 2016).
